Data published in publication PMC12203311, “Design, synthesis, in silico and in vitro evaluation of pyrrole–indole hybrids as dual tubulin and aromatase inhibitors with potent anticancer activities” (RSC Advances, 2025).

Experiments:
SK-OV-3 = assay: NCI60 five-dose screen; type: cell-based; conditions: Homo sapiens, SK-OV-3, ovarian cancer
SW-620 = assay: NCI60 five-dose screen; type: cell-based; conditions: Homo sapiens, SW-620, colon cancer
SN12C = assay: NCI60 five-dose screen; type: cell-based; conditions: Homo sapiens, renal cancer
SR = assay: NCI60 five-dose screen; type: cell-based; conditions: Homo sapiens, leukemia
A498 = assay: NCI60 five-dose screen; type: cell-based; conditions: Homo sapiens, A498, renal cancer
T-47D = assay: NCI60 five-dose screen; type: cell-based; conditions: Homo sapiens, T47D, breast cancer
[1] = test system: NCI60 human cancer cell line panel; assay: NCI60 five-dose screen, ranges over the panel; type: cell-based; conditions: HL-60 (TB), K-562, SR, NCI-H460, COLO 205, HCC-2998, HT29, SK-MEL-5, OVCAR-8, read-out: LC50 values (range over named cell lines)
RXF 393 = assay: NCI60 five-dose screen; type: cell-based; conditions: Homo sapiens, RXF 393, renal cancer
MALME-3M = assay: NCI60 five-dose screen; type: cell-based; conditions: Homo sapiens, melanoma
MCF7 = assay: NCI60 five-dose screen; type: cell-based; conditions: Homo sapiens, MCF7, breast cancer
SF-268 = assay: NCI60 five-dose screen; type: cell-based; conditions: Homo sapiens, SF-268, CNS cancer
U251 = assay: NCI60 five-dose screen; type: cell-based; conditions: Homo sapiens, U-251, U251, CNS cancer
CCRF-CEM = assay: NCI60 five-dose screen; type: cell-based; conditions: Homo sapiens, leukemia
porcine brain tubulin = target: T1, porcine brain tubulin (Sus scrofa, UniProt P02550+P02554); assay: Tubulin polymerisation assay (fluorescence-based); type: biochemical; conditions: 10 µM, 37 °C
T1 construct: a solution containing porcine brain tubulin (2 mg mL^−1); purchased Cytoskeleton BK011P; host or cells: porcine brain (tissue-purified)
Protocol: The tubulin polymerisation experimental protocol followed the method described in this literature.[28] The experimental was using fluorescence-based assay kit (Cytoskeleton, catalog no. BK011P). In Brief, 5 µL of test compounds was added to a 96-well plate, then mix with 50 µL of a solution containing porcine brain tubulin (2 mg mL^−1) in buffer with 20% glycerol and 1 mM GTP. A microplate reader (Varioskan™ LUX multimode microplate reader, Thermo Scientific™) was used to measure fluorescence intensity every 60 seconds for 60 minutes, with excitation at 360 nm and emission at 450 nm, maintained at 37 °C throughout the experiment.

[2] = read-out: LC50 (the source's name)

T1 sequence (P02554 whole entry): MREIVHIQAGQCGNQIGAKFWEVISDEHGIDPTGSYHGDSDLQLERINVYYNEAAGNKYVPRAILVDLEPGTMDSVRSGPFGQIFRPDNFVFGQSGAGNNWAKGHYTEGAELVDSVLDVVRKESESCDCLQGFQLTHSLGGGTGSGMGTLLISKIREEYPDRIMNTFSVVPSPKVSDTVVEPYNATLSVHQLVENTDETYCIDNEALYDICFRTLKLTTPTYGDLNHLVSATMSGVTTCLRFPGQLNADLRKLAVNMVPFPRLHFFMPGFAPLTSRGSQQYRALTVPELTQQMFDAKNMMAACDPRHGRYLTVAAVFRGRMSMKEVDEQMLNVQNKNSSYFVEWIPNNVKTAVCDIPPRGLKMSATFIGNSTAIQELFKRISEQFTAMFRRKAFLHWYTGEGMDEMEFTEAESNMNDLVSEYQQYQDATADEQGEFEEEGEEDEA
T1 sequence (P02550 whole entry): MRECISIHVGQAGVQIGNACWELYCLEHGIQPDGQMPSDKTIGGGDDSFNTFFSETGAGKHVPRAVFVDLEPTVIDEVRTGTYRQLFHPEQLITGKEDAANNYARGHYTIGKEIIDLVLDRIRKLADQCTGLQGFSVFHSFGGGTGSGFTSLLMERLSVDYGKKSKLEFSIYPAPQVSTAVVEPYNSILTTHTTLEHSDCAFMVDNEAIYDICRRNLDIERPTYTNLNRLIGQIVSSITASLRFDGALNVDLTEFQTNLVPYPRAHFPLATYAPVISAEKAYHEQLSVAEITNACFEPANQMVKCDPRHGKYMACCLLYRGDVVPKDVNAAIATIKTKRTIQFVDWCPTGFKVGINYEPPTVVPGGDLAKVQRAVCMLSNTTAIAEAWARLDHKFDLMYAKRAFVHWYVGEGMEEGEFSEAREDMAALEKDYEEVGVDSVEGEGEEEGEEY

With `O=C(N/N=C/c1cc(Cl)c[nH]1)c1[nH]c2ccc(Br)cc2c1-c1ccccc1` [Derivative 3h, (E)-5-Bromo-N′-((4-chloro-1H-pyrrol-2-yl)methylene)-3-phenyl-1H-indole-2-carbohydrazide] as the compound, how does the GI50 (SK-OV-3) read?
The GI50 was 0.519 µM.

And the CC50 (SK-OV-3; [2])?
The CC50 was 45.4 µM.

And the GI50 (SW-620)?
Its GI50 is 0.328 µM.

And the CC50 (SW-620; [2])?
The CC50 was 80.9 µM.

And the GI50 (SN12C)?
Its GI50 is 0.391 µM.

What about the CC50 (SN12C; [2]) of the same compound?
Its CC50 is 15.3 µM.

And the GI50 (SR)?
The GI50 was 0.179 µM.

What about the CC50 (SR; [2]) of the same compound?
The CC50 was 4.6 µM.

And the GI50 (A498)?
Its GI50 is 1.45 µM.

And the CC50 (A498; [2])?
Its CC50 is 42.1 µM.

And the GI50 (T-47D)?
Its GI50 is 0.546 µM.

And the CC50 (T-47D; [2])?
Its CC50 is 92.6 µM.

And the CC50 [1]?
Its CC50 is 0.8 to 7.2 µM.

And the GI50 (RXF 393)?
Its GI50 is 0.219 µM.

And the CC50 (RXF 393; [2])?
The CC50 was 34.3 µM.

And the GI50 (MALME-3M)?
The GI50 was 0.645 µM.

What about the CC50 (MALME-3M; [2]) of the same compound?
The CC50 was 46.1 µM.

What about the GI50 (MCF7) of the same compound?
Its GI50 is 0.309 µM.

And the CC50 (MCF7; [2])?
The CC50 was 53.5 µM.

What about the GI50 (SF-268) of the same compound?
The GI50 was 0.388 µM.

What about the CC50 (SF-268; [2]) of the same compound?
Its CC50 is 77.3 µM.

What about the GI50 (U251) of the same compound?
Its GI50 is 0.349 µM.

What about the CC50 (U251; [2]) of the same compound?
The CC50 was 24.9 µM.

And the GI50 (CCRF-CEM)?
The GI50 was 0.132 µM.

What about the CC50 (CCRF-CEM; [2]) of the same compound?
Its CC50 is over 100 µM.

What about the “RFU in tubulin polymerization assay” value (porcine brain tubulin) of the same compound?
Its value is about 40 arbitrary units.
